Assay [1] deals with T1, full-length CHK2 (Homo sapiens, UniProt O96017).
T1 construct: full-length human CHK2 (residues 1 to 543); 6xHis (N); made in house; host or cells: Sf9 insect cells (baculovirus)
The assay can be described thus: High-concentration AlphaScreen kinase assay (phosphorylation of CDC25C peptide). The note with it: for inhibition at 300 µM: primary screening data, compound concentration 300 µM, mean ± SD of triplicate, read-out: AlphaScreen™ (percentage inhibition). Type of assay: biochemical. As for the experimental part: To identify fragments binding in the ATP-binding-site of CHK2, we screened the in-house fragment library consisting of 1869 compounds, as described above, against full-length CHK2 using an AlphaScreen™ kinase assay, in which inhibition of full-length CHK2 was measured by a reduction in the phosphorylation of a CDC25C peptide (Figure S1). Because of the generally weak affinity of fragments, the assay was carried out at a high compound concentration (300 µM). […] All 45 hits were confirmed by re-assaying them under the same conditions. To eliminate potential false positives due to aggregation of poorly soluble fragments, or owing to interference with the AlphaScreen™ signal, the hits were assayed by including 0.01% (v/v) Triton™ X-100 in the assay buffer, and in the presence of phosphorylated rather than unphosphorylated peptide substrate, respectively. The average robust Z’ for the confirmation assays was 0.9. […] The final confirmed hit rate for the assay was 1.1%.
Full-length CHK2 was screened against the ICR fragment library consisting of 1869 fragments using a biochemical assay based on AlphaScreen™ technology in which the CHK2 kinase activity was measured by monitoring the phosphorylation of a CDC25C peptide using a phospho-specific antibody. Assay conditions were similar to those described by Hilton et al., but all fragments were screened at a final concentration of 300 µM. Amendments to the protocol included a change in the full-length CHK2 concentration to 2 nM and a final concentration of the antibody against phosphorylated CDC25C of 0.5 nM. For a positive control, 4-(2-amino-5-(thiophen-3-yl)pyridin-3-yl)benzoic acid (27, Figure S4, referred to as compound 19 in Hilton et al.) was added at a final concentration of 10 µM. The phosphorylation reaction was performed for 80 min at room temperature and stopped by the addition of 5 µL of the previously described detection buffer. Plates were incubated overnight at room temperature and in the dark, and the assay endpoint was measured using an Envision™ 2103 multilabel reader (Perkin Elmer Life Sciences, Seer Green, UK). Primary screening data were analyzed in ActivityBase (IDBS, Guildford, UK). Percentage inhibition was calculated as follows: 100*(1–(S–B)/(T–B)), where S represented the counts for each compound well, B the counts in the wells containing no enzyme, and T the counts in the total activity wells. The plates were assayed in triplicate and fragments with a percentage inhibition of 50% or more in at least two out of the three measurements were defined as initial hits. Initial hits were re-assayed under the same conditions in triplicate for reconfirmation. Furthermore, all hits were tested for interference by repeating the assay in the presence of phosphorylated rather than unphosphorylated peptide substrate, and for aggregation by including 0.01% (v/v) Triton™ X-100 in the assay buffer.

For assay [2], the target named is T1, full-length CHK2. The assay can be described thus: Microfluidic mobility shift assay for IC50 determination. The note with it: for Ligand Efficiency: calculated using mean mobility shift IC50; for IC50: mean ± SD of triplicate. Type of assay: biochemical. The procedure: In addition, percentage inhibition and IC50 values for all follow-up compounds were determined in triplicate using this assay. […] An ECHO® 550 acoustic dispenser (Labcyte Inc™, Dublin, Ireland) was used to generate duplicate eight-point dilution curves directly into 384-well low-volume polystyrene assay plates (Corning Life Sciences, New York, USA). For each compound, a 10 mM stock concentration in 100% DMSO was used.
The plate was sealed and centrifuged for 1 min at 1000 rpm before incubation for 1 h at room temperature.
IC50 values were calculated from a four-parameter logistics fit of percentage inhibition versus concentration using the Studies package (from Dotmatics, Bishops Stortford, UK).

For assay [3], the target named is T2, kinase domain of CHK2 (CHK2-KD, residues 210-531) (Homo sapiens, UniProt O96017).
T2 construct: The kinase domain of CHK2 (residues 210-531) was produced as a GST-fusion protein; GST (cleaved yes); made in house
T2 sequence (O96017 210-531): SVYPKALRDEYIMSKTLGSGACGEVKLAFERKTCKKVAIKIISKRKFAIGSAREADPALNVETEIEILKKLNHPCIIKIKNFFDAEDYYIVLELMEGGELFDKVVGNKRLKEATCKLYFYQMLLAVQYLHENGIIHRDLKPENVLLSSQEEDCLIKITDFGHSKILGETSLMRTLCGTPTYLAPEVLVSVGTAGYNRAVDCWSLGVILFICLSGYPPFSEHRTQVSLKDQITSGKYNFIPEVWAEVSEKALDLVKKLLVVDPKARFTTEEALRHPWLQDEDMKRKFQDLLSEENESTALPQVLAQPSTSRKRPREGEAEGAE
Kind of assay: Thermal shift assay (SYPRO Orange). In kind it is binding. The note with it: for T m, ligand (standard deviations from the plate mean): highest value of two independent measurements, 2 mM fragment; for ΔT m, ligand: mean of two independent measurements, 2 mM ligand. The procedure: In parallel, we screened the fragment library against the kinase domain of CHK2 (CHK2-KD, residues 210-531) using a thermal shift assay. In a thermal shift assay, the folding stability of a target protein is measured by its thermally-induced unfolding. An increase in melting temperature of a protein in the presence of a ligand is used to identify ligand binding, assuming that the bound ligand stabilizes the target protein and therefore increases the energy required for its thermal unfolding. The thermal unfolding of CHK2-KD was measured using the fluorescent dye SYPRO® Orange™, which is sensitive to its environment and preferentially binds to hydrophobic patches that are typically exposed upon protein unfolding. To identify the hit threshold, we calculated the standard deviation (SD) of the melting temperature of CHK2 in the presence of a ligand (T m, ligand) for each plate. Ligands with a T m, ligand value of more than 2 standard deviations above the mean T m, ligand for each plate in at least one of the duplicates were defined as hits. We calculated the mean change in melting temperature from duplicate measurements (ΔT m, ligand) by subtracting the mean melting temperature of six reference samples of protein without ligand (T m, 0) from the melting temperature of CHK2 samples with ligand (T m, ligand).
Thermal shift screening of the ICR fragment library against a truncated version of CHK2 comprising only the kinase domain (CHK2-KD), was carried out using an Opticon 2 RT-PCR machine (Bio-Rad, Hemel Hempstead, UK). […] All experiments were performed in white 96-well SuperPlate skirted PCR-plates (ABgene®, Thermo Scientific, Loughborough, UK). Fragments were screened at a final concentration of 2 mM in assay buffer containing a final concentration of 2% (v/v) DMSO and all measurements were carried out in duplicate. The well contents were mixed by centrifugation for 2 min at 500 g and pre-equilibrated for 5 min at 20°C before starting the thermal shift experiment. All melting curves were generated from 20°C to 95°C, raising the temperature in steps of 0.5°C and keeping it constant for 15 seconds at each step. […] MgATP (2 mM ATP and 5 mM MgCl2) in the presence of 2% (v/v) DMSO was used as a positive control. For each experiment, the data range of the protein unfolding transition was established using the Excel-based worksheet ‘DSF Analysis’, made available by the Structural Genomics Consortium (SGC), Oxford, and subsequently fitted with a Boltzmann sigmoidal equation using GraphPad Prism version 5 (GraphPad Software, San Diego, California, USA, www.graphpad.com), from which the melting temperature T m was calculated. The change in melting temperature caused by ligand binding, expressed as the mean from duplicate measurements (ΔT m, ligand), was calculated by subtracting T m, 0 from each melting temperature obtained in the presence of a ligand (T m, ligand) using the DSF-analysis spreadsheet. The hit threshold was determined by calculating the standard deviation (SD) of the melting temperatures of CHK2 in the presence of ligand (T m, ligand) for every plate. Ligands with a T m, ligand>mean(T m, ligand) +2SD in at least one of the duplicates were defined as hits.

In the next assay the target is T3, CHK1 (Homo sapiens, UniProt O14757).
T3 sequence (O14757 1-476): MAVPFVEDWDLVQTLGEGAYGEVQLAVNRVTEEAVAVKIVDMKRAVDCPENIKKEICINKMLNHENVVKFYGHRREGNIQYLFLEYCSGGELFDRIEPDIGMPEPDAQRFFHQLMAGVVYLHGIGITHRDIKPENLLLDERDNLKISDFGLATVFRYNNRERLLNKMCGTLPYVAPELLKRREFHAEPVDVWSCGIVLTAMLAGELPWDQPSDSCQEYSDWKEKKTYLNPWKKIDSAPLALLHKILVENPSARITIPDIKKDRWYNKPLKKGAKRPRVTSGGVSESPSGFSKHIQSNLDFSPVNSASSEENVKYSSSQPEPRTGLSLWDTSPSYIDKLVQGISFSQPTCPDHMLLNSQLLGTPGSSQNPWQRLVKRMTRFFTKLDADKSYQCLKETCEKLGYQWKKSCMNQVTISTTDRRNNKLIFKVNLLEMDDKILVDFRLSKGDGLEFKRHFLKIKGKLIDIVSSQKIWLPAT
Kind of assay: CHK1 mobility shift assay. Type of assay: biochemical. The note with it: inactive. From the text:
However, it is very difficult to assess the contribution to selectivity of binding in this pocket using the inhibitor 26, because its CHK2 selectivity is most likely dominated by the unusual binding of the benzamidazole scaffold to the hinge through a mediating water molecule.

Assay [4] relates to ovarian cancer cell lines. The note with it: cited from earlier work.
[5] abbreviates: follow-up compounds from similarity search (Table 2).

This is an account of results in PMC3680490, “Fragment-Based Screening Maps Inhibitor Interactions in the ATP-Binding Site of Checkpoint Kinase 2” (PLoS ONE, 2013).

The structures appear in SMILES notation. Marks after values point to notes of the source that are not given here.

T1 sequence (O96017 whole entry, the tested form may be a part): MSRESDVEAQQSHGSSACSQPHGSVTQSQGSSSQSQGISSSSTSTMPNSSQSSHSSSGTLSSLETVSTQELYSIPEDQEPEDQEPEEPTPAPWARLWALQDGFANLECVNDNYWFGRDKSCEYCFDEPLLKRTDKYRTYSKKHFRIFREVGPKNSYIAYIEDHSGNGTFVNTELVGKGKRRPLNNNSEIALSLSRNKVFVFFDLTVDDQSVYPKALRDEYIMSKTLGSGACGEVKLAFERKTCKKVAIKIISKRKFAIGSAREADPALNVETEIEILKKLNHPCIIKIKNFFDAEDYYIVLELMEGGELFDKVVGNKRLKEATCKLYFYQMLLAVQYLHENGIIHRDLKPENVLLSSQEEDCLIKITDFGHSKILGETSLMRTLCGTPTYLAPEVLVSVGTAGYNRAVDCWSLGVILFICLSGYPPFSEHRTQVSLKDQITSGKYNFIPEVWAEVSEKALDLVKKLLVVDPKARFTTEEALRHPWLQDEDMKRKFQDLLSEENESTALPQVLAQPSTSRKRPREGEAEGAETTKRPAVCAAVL

As a reminder, the inhibition is the share of the control response that was lost under treatment. The term IC50 denotes the concentration that inhibits the measured activity by half. Turning to `c1ccc2c(c1)[nH]c1ncnn12` [Compound 11], the inhibition at 300 µM at full-length CHK2 [1] worked out at 91.4 ± 0.4%. The “Ligand Efficiency” value on full-length CHK2 [2] (Table 1) is reported as 0.64 kcal mol^−1 HA^−1. Besides, the IC50 at full-length CHK2 [2] (fragment hits, 100 µM ATP) came out at 2.7 ± 0.2 µM. Besides, in assay [3], the “T m, ligand (standard deviations from the plate mean)” value stood at 5.8 standard deviations and the “ΔT m, ligand” value was determined as 7.0±0.8 °C.
On the same counts, the results for `C/C(=N/O)c1ccc(O)cc1O` [Compound 12] are 58.2 ± 1.7%, 0.47 kcal mol^−1 HA^−1, 85.6 ± 7.9 µM, 2.9 standard deviations and 3.0 ^f °C.
As to `O=C(NCc1ccco1)c1ccc2nccnc2c1` [Compound 13], the inhibition at 300 µM at full-length CHK2 [1] was found to be 76.1 ± 1.1%. Also, the “Ligand Efficiency” value on full-length CHK2 [2] (Table 1) was 0.36 kcal mol^−1 HA^−1. Besides, the half-maximal inhibitory concentration (IC50) at full-length CHK2 [2] (fragment hits, 100 µM ATP) worked out at 11.7 ± 2 µM. In addition, in assay [3], the “T m, ligand (standard deviations from the plate mean)” value came out at 5.7 standard deviations and the “ΔT m, ligand” value stood at 5.6±0.3 °C. Further, on CHK1, the IC50 is above 200 µM.
As to `CC(C)(C)NC(=O)Nc1ccc2nccnc2c1` [Compound 14], at full-length CHK2 [1], the inhibition at 300 µM was found to be 59.5 ± 1.9%. Moreover, at full-length CHK2 [2] (Table 1), the “Ligand Efficiency” value is on record as 0.34 kcal mol^−1 HA^−1. The IC50 on full-length CHK2 [2] (fragment hits, 100 µM ATP) worked out at 36.9 ± 9 µM. For the same compound, in assay [3], the “T m, ligand (standard deviations from the plate mean)” value is reported as 4.3 standard deviations and the “ΔT m, ligand” value is 4.5±0.02 °C.
With `Cc1ccc2ncnc(N)c2c1` [Compound 15], on full-length CHK2 [1], the inhibition at 300 µM came to 72.8 ± 6.7%. On full-length CHK2 [2] (Table 1), the “Ligand Efficiency” value is 0.55 kcal mol^−1 HA^−1. Further, the concentration for half-maximal inhibition (IC50) at full-length CHK2 [2] (fragment hits, 100 µM ATP) stood at 15.9 ± 1.1 µM. Besides, in assay [3], the “T m, ligand (standard deviations from the plate mean)” value came out at 4.6 standard deviations and the “ΔT m, ligand” value is 5.0±0.6 °C.
As for `Cc1cc(-c2ccccc2)n[nH]1` [Compound 16], at full-length CHK2 [1], the inhibition at 300 µM stood at 56.1 ± 1%. In assay [3], the “T m, ligand (standard deviations from the plate mean)” value amounted to 3.7 standard deviations and the “ΔT m, ligand” value came out at 2.6±1.7 °C.
In the case of `Nc1cc(-c2cccnc2)n[nH]1` [Compound 17], the inhibition at 300 µM on full-length CHK2 [1] stood at 71.5 ± 25.5%. The “Ligand Efficiency” value on full-length CHK2 [2] (Table 1) was 0.47 kcal mol^−1 HA^−1. For the same compound, the IC50 on full-length CHK2 [2] (fragment hits, 100 µM ATP) stood at 76.2 ± 3.3 µM. For the same compound, in assay [3], the “T m, ligand (standard deviations from the plate mean)” value came out at 4.2 standard deviations and the “ΔT m, ligand” value was 3.7±0.9 °C.
On the same counts, the results for `Cc1n[nH]c(N)c1-c1cccs1` [Compound 18] are 60.9 ± 2.1%, 0.47 kcal mol^−1 HA^−1, 76.8 ± 1.4 µM, 4.6 standard deviations and 3.9±1.3 °C.
For `CC(=O)N1CCC(C(=O)Nc2ccc(C)cn2)CC1` [Compound 19] the same measures were 34.7 ± 0.93%, 0.26 kcal mol^−1 HA^−1, 228 ± 22.2 µM, 5.7 standard deviations and 4.0±0.6 °C.
As to `c1coc(-c2ccnc3[nH]nc(C4CC4)c23)c1` [Compound 20], the “Ligand Efficiency” value at full-length CHK2 [2] (Table 2) is reported as 0.42 kcal mol^−1 HA^−1. Moreover, the IC50 on full-length CHK2 [2] (setting [5]) was 7.2 ± 2.9 µM.
On the same counts, the results for `c1cncc(-c2n[nH]c3ccnc(-c4cccs4)c23)c1` [Compound 21] are 0.32 kcal mol^−1 HA^−1 and 21.3 ± 2.1 µM.
Regarding `COc1ccc(CNC(=O)c2ccc3nccnc3c2)cc1` [Compound 22], on full-length CHK2 [2] (Table 2), the “Ligand Efficiency” value is 0.34 kcal mol^−1 HA^−1. Besides, the IC50 at full-length CHK2 [2] (setting [5]) is 3.6 ± 1.2 µM; on CHK1, above 200 µM.
Turning to `CCOC(=O)N1CCN(C(=O)Nc2ccc3nccnc3c2)CC1` [Compound 23], at full-length CHK2 [2] (Table 2), the “Ligand Efficiency” value is given as 0.28 kcal mol^−1 HA^−1. Moreover, the IC50 at full-length CHK2 [2] (setting [5]) stood at 14.2 ± 8.6 µM.
Regarding `Nc1ncc(-c2ccsc2)cc1-c1ccc(C(=O)O)cc1` [Compound 27, 4-(2-amino-5-(thiophen-3-yl)pyridin-3-yl)benzoic acid, reference compound], at full-length CHK2 [1] (concentration of 10 µM, read-out: AlphaScreen™ percentage inhibition, positive control), the inhibition at 10 µM was 62.7%.
Consider `CC(CO)NC(=N)c1c(O)nsc1Nc1ccc(Nc2ccc(Br)cc2)cc1` (stereo not shown) [VRX0466617], for which the “Potentiation in combination with genotoxic agents” value in assay [4] was “no such effects have been observed”.
